Reference: article PMC8653689, “Phenanthrotriazine Derivatives Containing Arylidine Hydrazone Moieties as Novel Potential c-Met Inhibitors with Anticancer Effect” (Iranian Journal of Pharmaceutical Research : IJPR, 2021)

Assays:
[1] = test system: MDA-MB435s melanoma cells; set-up: method as in PMID 25470024; conditions: ref [32], [33]; read-out: Cytotoxic effect against MDA-MB435s melanoma cells IC50; cited from earlier work
[2] = test system: MDA-MB-231 breast cancer cells; set-up: method as in PMID 25470024; conditions: ref [32], [33]; read-out: Antiproliferative activity against MDA-MB-231 breast cancer cells IC50; cited from earlier work
[3] = test system: MGC-803 gastric cancer cells; set-up: method as in PMID 28763643, PMID 24393539; conditions: ref [13], [31]; read-out: Antiproliferative activity against MGC-803 gastric cancer cells IC50; cited from earlier work
[4] = Solubility in aqueous media; type: physicochemical
A498 renal cancer cells = test system: A498 renal cancer cells; set-up: method as in PMID 30721822, PMID 28431881; conditions: at 10 μM; ref [4], [30]; cited from earlier work
MCF7 breast cancer cells = test system: MCF7 breast cancer cells; set-up: method as in PMID 28763643, PMID 24393539; conditions: ref [13], [31]; read-out: Cytotoxic effect against MCF7 breast cancer cells IC50; cited from earlier work
[5] = test system: DU145 prostate cancer cells; set-up: method as in PMID 28431881; conditions: ref [30]; read-out: Antiproliferative activity against DU145 prostate cancer cells IC50; cited from earlier work
[6] = test system: HT-29 (human colorectal adenocarcinoma) cells; experiment: MTT reduction assay, antiproliferative effect, HT-29; type: cell-based; conditions: Homo sapiens, HT-29, 72 h, read-out: HT-29 IC50
Source text: (§1) Fetal bovine serum (FBS), phosphate-buffered saline (PBS), RPMI-1640, and trypsin were obtained from Biosera (Ringmer, UK). Penicillin/streptomycin and MTT (3-(4,5-dimethylthiazol-2-yl)-2,5-diphenyltetrazolium bromide) were from Sigma-Aldrich (Saint Louis, MO, USA) and Invitrogen (San Diego, CA, USA), respectively. Dimethyl sulfoxide and doxorubicin were purchased from Merck (Darmstadt, Germany) and EBEWE Pharma (Unterach, Austria), respectively. The cells were acquired from Iranian Biological Resource Center, Tehran, Iran (HT-29 (human colorectal adenocarcinoma), MCF-7 (human breast adenocarcinoma) and Vero (African green monkey kidney) cells) or National Cell Bank of Iran, Pasteur Institute, Tehran, Iran (MOLT-4 (lymphoblastic leukemia) cells).
(§2) MTT reduction assay was employed to assess the viability of cancer cells after being treated with synthesized derivatives as previously described ([34]). The cells were plated in flat-bottom 96-well microplates, at densities of 3 × 10^4 cells/mL (100 μL in each well) and then incubated overnight at 37 °C. Three to four different concentrations of synthesized derivatives (in the range of 1 to 100 μM) were placed in triplicate wells and the plates were incubated for 72 h at 37 °C. […] At the end of the incubation time, 80 μL of the media in each well was replaced with the same amount of growth medium without phenol red containing 0.5 mg/mL of MTT. Cells were further incubated at 37 °C for 4 h and then 80 μL of the solution of each well was removed. The addition of DMSO (200μL) to each well solubilized the formazan crystals formed inside the viable cells after 1-hour incubation followed by 30-minute shaking. The optical absorbance of the final solution was determined at 570 nm using a Bio-Tek multimode plate reader (Synergy HTX). The cell viability was calculated compared to untreated control cells by comparison of absorbance measurements. CurveExpert software (version 1.34 for Windows) was used to determine the IC50 value for each compound. To confirm the results, every experiment was repeated 3 to 5 times.

MCF-7 cells [7] = experiment: Cell cycle analysis, propidium iodide/RNase flow cytometric assay; type: cell-based, human; conditions: 48 h
Experimental: Alterations of the cell cycle were determined by the propidium iodide (PI)-RNase flow cytometric method ([35]). MCF-7 cells were used to determine the percentage of cells in each phase of the cell cycle. In 6-well plates, 2 × 10^5 cells were seeded in each well and incubated at 37 °C for 48 h. Afterward, they were treated for 48 h with derivatives 9g, 9j, 9k and 9l at 10 and 25 μM. The cells were then collected after trypsinization, washed twice with PBS, and fixed by 5 mL ethanol 70% for at least 24 h at -20 °C. After fixation, MCF-7 cells were washed with PBS two times and stained with PI 20 µg/mL and RNase 200 µg/mL for 30 min in the dark at room temperature. A FACS Calibur ﬂow cytometer (BD Biosciences) was used for the assays and 20,000 events were analyzed. The number of cells distributed in sub-G1, G0/G1, S, and G2/M were determined by CellQuest software (BD, USA).
Figure 2 Representative cell cycle histograms of MCF-7 cells treated with synthesized derivatives. Analysis of the percentage of cells in different phases of cell cycle was performed using propidium iodide (PI)-RNase flow cytometric assay. MCF-7 cells were seeded in 6-well microplates and treated with synthesized derivatives for 48 h. The cells were then collected and fixed in 70% ethanol overnight at -20 °C. In the end, the cells were stained with DNA staining solution (PI 20 µg/mL and RNase 200 µg/mL) for 30 min and 20,000 events were analyzed by a FACS Calibur ﬂow cytometer (BD Biosciences). Representative histograms of cells treated with compounds 9g, 9j, 9k and 9l are shown

MCF-7 cells [8] = experiment: Hoechst 33258 staining, detection of apoptosis; type: cell-based, human; conditions: MCF-7, 72 h treatment, especially at 25 µM
Experimental: Hoechst 33258 was used as a DNA stain to detect apoptosis in cells. MCF-7 cells were seeded in a 6-well plate at a density of 5 × 10^4 cells/mL (2 mL per well) and incubated for 24 h. The whole medium was removed and different concentrations of test compounds 9g, 9j, 9k, and 9l diluted in 2 mL medium were placed in the different wells and incubated for 72 h. Afterward, the medium was removed again, 1 mL of 4% cold freshly prepared paraformaldehyde (PFA) was added, and cells were incubated for 20 min at room temperature. The cells were then washed 2 times with 1 ml PBS and incubated with 1 mL Hoechst 33258 2.5 µg/mL for 30 min in the dark at room temperature ([36], [37]). In the end, the cells were washed with 1 mL PBS and imaged with a fluorescence microscope.
Figure 3 Detection of apoptosis in MCF-7 cells by Hoechst staining. Hoechst 33258 was used as a DNA stain to detect apoptosis in MCF-7 cells treated with synthesized compounds. The cells were seeded in a 6-well plates and treated with different concentrations of test compounds 9g, 9j, 9k and 9l for 72 h. After removing the whole medium, 4% cold freshly prepared paraformaldehyde (PFA) was added for 20 min at room temperature, the cells were then washed twice with PBS, and incubated with Hoechst 33258 2.5 µg/mL for 30 min at room temperature in the dark. Finally, the cells were washed with PBS again and the plates were imaged with a fluorescence microscope

[9] = test system: MOLT-4 (lymphoblastic leukemia) cells; experiment: MTT reduction assay, antiproliferative effect, MOLT-4; type: cell-based, human; conditions: Homo sapiens, MOLT-4, 72 h, read-out: MOLT-4 IC50
Source text: as §1, §2

[10] = test system: MCF-7 (human breast adenocarcinoma) cells; experiment: MTT reduction assay, antiproliferative effect, MCF-7; type: cell-based; conditions: Homo sapiens, MCF7, 72 h, read-out: MCF-7 IC50, MTT, 72 h incubation
Source text: as §1, §2

[11] = test system: Vero (African green monkey kidney) cells; experiment: MTT reduction assay, Vero normal cells; type: cell-based; conditions: Chlorocebus sabaeus, Vero, 72 h, read-out: Vero IC50
Source text: as §1, §2

In the case of `CSc1nnc2c3ccccc3c3ccccc3c2n1` [Compound 5], the IC50 [1] is given as 120 µM.
For `Cc1csc(N/N=C/c2ccccc2)n1` [Compound 6], the IC50 [2] is listed as 3.9 µM.
In the case of `Sc1nnc2c3ccccc3c3ccccc3c2n1` [Compound 3], the melting point is listed as 122 to 124 °C and the IC50 [3] is listed as 7.6 µM.
With `COc1ccc(C=NNc2nnc3c4ccccc4c4ccccc4c3n2)cc1` [Compound 9c, 3-(2-(4-methoxybenzylidene)hydrazinyl)phenanthro[9,10-e][1,2,4]triazine] the melting point was 288 to 292 °C and the “Solubility in aqueous media” value [4] was “very low solubility in aqueous media”.
For `O=C1NC(=O)/C(=C/c2ccc(-c3nc4c5ccccc5c5ccccc5c4[nH]3)cc2)S1` [Compound 2], the “Growth inhibition in A498 renal cancer cells” value (A498 renal cancer cells) is listed as 93%.
For `Oc1ccccc1C=NNc1nnc2c3ccccc3c3ccccc3c2n1` [Compound 9d, 2-((2-(phenanthro[9,10-e][1,2,4]triazin-3-yl)hydrazono)methyl)phenol], the melting point was 328 to 332 °C and the “Solubility in aqueous media” value [4] was “very low solubility in aqueous media”.
In the case of `O=[N+]([O-])c1cccc(/C=N/Nc2nnc3c(n2)-c2cccc4cccc-3c24)c1` [Compound 4], the IC50 (MCF7 breast cancer cells) is given as 61.9 µM.
In the case of `O=C1C(=O)c2ccccc2-c2ccccc21` [Compound 1], the IC50 [5] is listed as 1.5 µM.
In the case of `C(=NNc1nnc2c3ccccc3c3ccccc3c2n1)c1cccs1` [Compound 9l, 3-(2-(thiophene-2-ylmethylene)hydraz-inyl)phenanthro[9,10-e][1,2,4]triazine], the melting point is reported as 228 to 231 °C, the IC50 [6] is reported as 12.9 ± 3.5 µM and the “Percentage of cells in G0/G1” value (MCF-7 cells [7]; MCF-7, 10 µM) is reported as 73.76 ± 0.6. For the same compound, the “Percentage of cells in G2/M” value (MCF-7 cells [7]; MCF-7, 10 µM) was 18.50 ± 1.7, the “Percentage of cells in S” value (MCF-7 cells [7]; MCF-7, 10 µM) was 6.28 ± 1.0 and the “Percentage of cells in Sub G1” value (MCF-7 cells [7]; MCF-7, 10 µM) was 1.32 ± 0.3. The “Effect on cells in sub-G1 phase” value (MCF-7 cells [7]; MCF-7, 25 µM) was “increased the cells in the sub-G1 phase”, the “Percentage of cells in G0/G1” value (MCF-7 cells [7]; MCF-7, 25 µM) was 72.07 ± 0.9 and the “Percentage of cells in G2/M” value (MCF-7 cells [7]; MCF-7, 25 µM) was 19.43 ± 0.8. For the same compound, the “Percentage of cells in S” value (MCF-7 cells [7]; MCF-7, 25 µM) was 6.75 ± 0.9, the “Percentage of cells in Sub G1” value (MCF-7 cells [7]; MCF-7, 25 µM) was 1.56 ± 0.3 and the “Effect on number of cells in G0/G1” value (MCF-7 cells [7]; MCF-7, 10 and 25 µM) was “significantly enhanced the number of cells in the G0/G1”. For the same compound, the “Apoptosis induction by Hoechst 33258 staining” value (MCF-7 cells [8]) was “showed signs of apoptosis”, the IC50 [9] was 6.8 ± 0.7 µM and the IC50 [10] was 6.9 ± 0.9 µM. The IC50 [11] was 6.2 ± 3.1 µM.
